The values that follow come from patent publication US6525041B1, “Manganese or iron complexes of nitrogen-containing macrocyclic ligands effective as catalysts for dismutating superoxide” (Pharmacia Corporation, priority 1995, dated 2003).

This assay in a line: Stopped-flow kinetic analysis of catalytic dismutation of superoxide. The class given is biochemical. To be noted: pH=8.1 and 21° C., 80 mM Hepes buffer, absorbance at 245 nm. The source says: Stopped-flow kinetic analysis is an accurate and direct method for quantitatively monitoring the decay rates of superoxide in water. The stopped-flow kinetic analysis is suitable for screening compounds for SOD activity and catalytic activity of the compounds or complexes of the present invention for dismutating superoxide, as shown by stopped-flow analysis, correlate to treating the above disease states and disorders. […]
Water for buffer solutions was delivered from an in-house deionized water system to a Barnstead Nanopure Ultrapure Series 550 water system and then double distilled, first from alkaline potassium permanganate and then from a dilute EDTA solution. […] This system produces deoxygenated water that can be measured to have a conductivity of less than 2.0 nanomhos/cm^2.
The stopped-flow spectrometer system was designed and manufactured by Kinetic Instruments Inc. (Ann Arbor, Mich.) and was interfaced to a MAC IICX personal computer. […] Since the published extinction coefficient of superoxide in H2O at 245 nm is ˜2250 M^−1 cm^−1 (1), an initial absorbance value of approximately 0.3-0.5 would be expected for a 2-cm path length cell, and this was observed experimentally. […]

Molecules are shown by their SMILES.

In the case of `OCCCC1NCCNCCNCCNCCNC1CCCO.[Cl][Mn][Cl]` (stereo not drawn) [Example 1, [Manqanese(II)dichloro (trans-2,3-bis(3-hydroxypropyl)-1,4,7,10,13-pentaazacyclopentadecane)]], the “catalytic rate constant for dismutation of superoxide (kcal)” value is 1.8e+07 M⁻¹ s⁻¹.
